According to US20180318199A1, “Pharmaceutical Composition Having Anti-Aging Properties against High-Glucose” (TAIWAN LEADER BIOTECH CORP., priority 2017, published 2018):

Test system: HNDFs (CCD966SK)
Test: MTT cytotoxicity of antcins against HNDFs
Type: cell-based, human
Settings: MTT, 72 h, up to 20 μM
Method: Please refer to FIG. 2A˜FIG. 2D, which are views showing HG-induced senescence affected by antcins in HNDFs. As shown in the figures, prior to an investigation, cytotoxicity of antcins against HNDFs is determined. In FIG. 2A, type of antcins are subjected to screen for potential anti-aging agents for skin aging. Names and chemical structures of the antcins are shown in the left and center column, respectively. The cytotoxic effects of antcins against HNDFs are investigated. Briefly, HNDFs are incubated with increasing concentrations (1, 5, 10 and 20 μM) of antcins including ANA, ANB, ANC, ANH, ANK and ANM for 72 h and the cell viability is determined by MTT assay. The 50% inhibitory concentrations (IC50) of each compound against HNDFs are shown in right column.
Cell viability is assessed by MTT colorimetric assay. Briefly, HNDFs (2×10^4cells/well) or HUVECs (5×10^4 cells/well) are seeded in a 24-well culture plate. After treatment with HG (15 and 30 mM) in the presence or absence of samples for 24-72 h, culture media is withdrawn and incubated with MTT (1 mg/mL) in fresh medium for 2 h. The MTT formazan crystals are dissolved in 400 μL of DMSO and the samples are measured at 570 nm […] using an ELISA microplate reader (Bio-Tek Instruments, Winooski, Vt.). The percentage of cell viability (%) is calculated as (A570 of treated cells/A570 of untreated cells)×100.

Compound: C=C(CCC(C)C1CCC2C3=C(C(=O)C(O)C21C)C1(C)CCC(O)C(C)C1CC3)C(C)C(=O)O (stereo not shown) [ANM, antcin M]
- cytotoxicity to HNDFs (in words): did not show significant cytotoxicity
